IC50 data for 32 compounds are collected here from US20070275961A1, “Triazolo ' 1, 5-A ! Pyrimidines and Their Use in Medicine” (VERNALIS (CAMBRIDGE) LIMITED., priority 2003, published 2007).

Like-named read-outs stand apart in the source and are kept apart here. Bounds are passed on as bounds.

Common to all, as to type: biochemical
In one assay the target is T1, PDK1 enzyme (Homo sapiens, UniProt O15530).
T1 sequence (O15530 1-556): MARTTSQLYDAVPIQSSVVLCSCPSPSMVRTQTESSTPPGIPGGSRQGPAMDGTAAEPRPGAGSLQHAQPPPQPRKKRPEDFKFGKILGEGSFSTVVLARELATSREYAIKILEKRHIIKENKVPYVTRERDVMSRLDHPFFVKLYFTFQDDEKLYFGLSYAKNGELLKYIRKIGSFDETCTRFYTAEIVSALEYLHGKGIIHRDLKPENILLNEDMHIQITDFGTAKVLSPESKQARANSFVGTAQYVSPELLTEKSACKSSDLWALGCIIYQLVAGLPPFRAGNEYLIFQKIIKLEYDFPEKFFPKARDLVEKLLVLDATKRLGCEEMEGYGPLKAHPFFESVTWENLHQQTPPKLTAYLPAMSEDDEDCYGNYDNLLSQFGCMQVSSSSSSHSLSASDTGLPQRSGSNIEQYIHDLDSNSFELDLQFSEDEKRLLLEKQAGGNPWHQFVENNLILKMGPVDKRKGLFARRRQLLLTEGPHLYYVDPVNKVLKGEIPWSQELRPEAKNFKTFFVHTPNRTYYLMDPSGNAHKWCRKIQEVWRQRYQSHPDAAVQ
Briefly: PDK1 3'-phosphoinositide-dependent kinase assay, phosphorylation of synthetic peptide (33P-ATP filtration). On the procedure: (§1) The assay mixture containing the inhibitor and PDK1 enzyme was mixed together in a microtiter plate in a final volume of 50 μl and incubated for 60 min at 30° C. The assay mixture contained 0.01 mM unlabeled ATP, 0.01 μCi/μl ^33P-γ-ATP, 0.075 mM peptide, 0.1 mg/ml BSA, 7.5 mM magnesium acetate, 0.05 M Tris.HCl, pH 7.5, 0.5% 2-mercaptoethanol. The reaction was stopped by adding 50 μl of 50 mM phosphoric acid. 90 μl of the mixture were transferred to a pre-wetted 96-well Multiscreen MAPHNOB filtration plate (Millipore) and filtered on a vacuum manifold. The filter plate was washed with three successive additions of 200 μl 50 mM phosphoric acid and then with 100 μl methanol. The filtration plate was dried for 10 min at 65° C., scintillant added and phosphorylated peptide quantified in a scintillation counter (Trilux, PerkinElmer).

For the next assay, the target named is T2, Chk1 (Homo sapiens, UniProt O14757).
T2 sequence (O14757 1-476): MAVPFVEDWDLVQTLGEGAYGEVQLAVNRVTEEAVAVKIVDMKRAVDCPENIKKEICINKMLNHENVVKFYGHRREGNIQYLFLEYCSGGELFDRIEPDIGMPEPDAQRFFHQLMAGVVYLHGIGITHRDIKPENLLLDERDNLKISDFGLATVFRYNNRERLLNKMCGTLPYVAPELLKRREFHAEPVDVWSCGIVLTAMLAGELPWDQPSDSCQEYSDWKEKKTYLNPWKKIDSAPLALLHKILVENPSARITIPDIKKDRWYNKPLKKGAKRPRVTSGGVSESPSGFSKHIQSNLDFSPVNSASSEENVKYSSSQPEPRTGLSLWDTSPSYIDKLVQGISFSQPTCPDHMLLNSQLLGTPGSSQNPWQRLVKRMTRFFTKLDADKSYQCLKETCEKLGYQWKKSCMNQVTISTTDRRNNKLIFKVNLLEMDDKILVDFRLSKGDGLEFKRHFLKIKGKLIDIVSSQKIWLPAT
Briefly: Chk1 kinase assay, phosphorylation of Chktide (33P-ATP filtration). On the procedure: Assays for the Chk1 kinase activity were carried out by monitoring the phosphorylation of a synthetic peptide Chktide with the amino acid sequence, […]. The assay mixture containing the inhibitor and Chk1 enzyme was mixed together in a microtiter plate in a final volume of 50 μl and incubated for 40 minutes at 30° C.
The assay mixture contained 0.01 mM unlabeled ATP, 0.5 μCi ^33P-γ-ATP, 30 μM Chktide, 0.1 mg/ml BSA, 50 mM Hepes-NaOH pH 7.5 and 11 nM GST-Chk1 enzyme. The reaction was stopped by adding 50 μl of 50 mM phosphoric acid. 90 μl of the mixture was transferred to a pre-wetted 96-well Multiscreen MAPHNOB filtration plate (Millipore) and filtered on a vacuum manifold. The filter plate was washed with three successive additions of 200 μl 50 mM phosphoric acid and then with 100 μl methanol. The filtration plate was dried for 10 min at 65° C., scintillant added and phosphorylated peptide quantified in a scintillation counter (Trilux, PerkinElmer).

The target in assay [1] is CDK2 enzyme, complexed with cyclin A (Homo sapiens, UniProt P24941). Briefly: CDK2 cyclin dependent kinase assay, phosphorylation of synthetic peptide […] (33P-ATP filtration). As to conditions: 0.1 mM ATP. On the procedure: as §1, with “and CDK2 enzyme, complexed with cyclin A (0.4 U/ml)” for “and PDK1 enzyme”, “for 40” for “for 60”, “contained 0.1” for “contained 0.01”, “^33P-γ-ATP, 0.03” for “^33P-γ-ATP, 0.075”, “acetate, 50 mM HEPES-NaOH,” for “acetate, 0.05 M Tris.HCl,”, “pH 7.5.” for “pH 7.5, 0.5% 2-mercaptoethanol.”
HEPES is N-[2-hydroxyethyl]piperazine-N′-[2-ethanesulfonic acid]. BSA is bovine serum albumin.

The mark [2] stands for this setting: Table 4, 0.01 mM ATP, read-out: PDK1 IC50.
Setting [3] is: Table 4, 0.01 mM ATP, read-out: Chk1 IC50.
Where [4] appears, read: Table 2, 0.01 mM ATP, read-out: PDK1 IC50.
Where [5] appears, read: Table 2, 0.01 mM ATP, read-out: Chk1 IC50.
[6] abbreviates: Table 1, 0.01 mM ATP, read-out: PDK1 IC50.
Where [7] appears, read: Table 1, 0.01 mM ATP, read-out: Chk1 IC50.
[8] abbreviates: Table 3, 0.01 mM ATP, read-out: PDK1 IC50.
Where [9] appears, read: Table 3, 0.01 mM ATP, read-out: Chk1 IC50.

As for `NC(=O)c1ccc(Nc2cc(-c3cccc(OCC4CCNCC4)c3)n3ncnc3n2)cc1` [Example 150], the IC50 on PDK1 enzyme (setting [2]) amounted to 14.6 µM; on Chk1 (setting [3]), 19.7 µM.

In the case of `CCCc1cc(Nc2ccc(S(C)(=O)=O)cc2)n2ncnc2n1` [Example 74], the half-inhibitory concentration (IC50) was 14.2 µM in assay [1] (Table 2), > 200 µM on PDK1 enzyme (setting [4]) and > 200 µM on Chk1 (setting [5]).

Regarding `COc1ccc(-c2cc(Nc3cccc(Cl)c3)n3ncnc3n2)nc1` [Example 54], the IC50 (in assay [1] (Table 1); at PDK1 enzyme (setting [6]); on Chk1 (setting [7])) was > 200 µM in each case.

Regarding `CNS(=O)(=O)Cc1ccc(Nc2cc(-c3cccc(F)c3)n3ncnc3n2)cc1` [Example 159], the figures for the half-maximal inhibitory concentration (IC50) on PDK1 enzyme (setting [2]) and on Chk1 (setting [3]) were 7.66 µM and 22.6 µM, respectively.

In the case of `CC(C)COc1cc(Nc2ccc(S(N)(=O)=O)cc2)n2ncnc2n1` [Example 14], the IC50 in assay [1] (Table 1) is 1.85 µM; at PDK1 enzyme (setting [6]), > 200 µM; at Chk1 (setting [7]), > 200 µM.

Take `CCN(CC)CCNC(=O)c1ccc(Nc2cc(-c3cccc(C)c3)n3ncnc3n2)cc1` [Example 105]: the IC50 in assay [1] (Table 3) was > 200 µM; on PDK1 enzyme (setting [8]), 6.1 µM; at Chk1 (setting [9]), 5.45 µM.

Take `CN(C)CCN(C)c1cc(Nc2ccc(S(C)(=O)=O)cc2)n2ncnc2n1` [Example 73]: the IC50 was 22.5 µM in assay [1] (Table 2), > 200 µM at PDK1 enzyme (setting [4]) and > 200 µM on Chk1 (setting [5]).

As for `CCN(CC)c1cc(Nc2ccc(S(N)(=O)=O)cc2)n2ncnc2n1` [Example 4, 4-(5-Diethylamino-[1,2,4]triazolo[1,5-a]pyrimidine-7-ylamino)-benzenesulfonamide], the IC50 in assay [1] (Table 1) was 0.39 µM; on PDK1 enzyme (setting [6]), > 200 µM; at Chk1 (setting [7]), > 200 µM.

For the compound `CCN(CC)CCNC(=O)c1ccc(Nc2cc(Cc3ccccc3)n3ncnc3n2)cc1` [Example 124], the IC50 was > 200 µM in assay [1] (Table 3), > 200 µM on PDK1 enzyme (setting [8]) and 15.8 µM at Chk1 (setting [9]).

As for `C[Si](C)(C)CCOCn1ncc2ccc(Nc3cc(Cl)nc4ncnn34)cc21` [Example 61], the IC50 (in assay [1] (Table 2); at PDK1 enzyme (setting [4]); on Chk1 (setting [5])) was > 200 µM in each case.

For `NC(=O)c1sccc1Nc1cc(-c2ccsc2)nc2ncnn12` [Example 44], the IC50 in assay [1] (Table 1) was 60.3 µM; at PDK1 enzyme (setting [6]) it was > 200 µM; at Chk1 (setting [7]), > 200 µM.

As to `CS(=O)(=O)c1ccc(Nc2cc(Cl)nc3ncnn23)cc1` [Example 18], the results for the IC50 (in assay [1] (Table 1); on PDK1 enzyme (setting [6]); on Chk1 (setting [7])) were 0.82 µM, > 200 µM and > 200 µM, respectively.

For `NS(=O)(=O)c1ccc(Nc2cc(OC3CCCCC3)nc3ncnn23)cc1` [Example 2, 7-(4-Aminosulfonylphenylamino)-5-cyclohexyloxytriazolo[1,5-a]pyrimidine], the IC50 on PDK1 enzyme (setting [6]) and at Chk1 (setting [7]) was > 200 µM each time.

Consider `NS(=O)(=O)c1ccc(Nc2cc(N[C@H]3CC[C@H](N)CC3)nc3ncnn23)cc1` [Example 36], for which the values for the IC50 at PDK1 enzyme (setting [6]) and on Chk1 (setting [7]) were 43.3 µM and 93.5 µM, respectively.

Turning to `NC(=O)c1ccc(Nc2cc(-c3cccc(O)c3)n3ncnc3n2)cc1` [Example 142], the IC50 on PDK1 enzyme (setting [2]) turned out to be 4.66 µM; on Chk1 (setting [3]) it was 3.92 µM.

As for `NS(=O)(=O)c1ccc(Nc2cc(OCC3CCCCC3)nc3ncnn23)cc1` [Example 51], the IC50 on PDK1 enzyme (setting [6]) and on Chk1 (setting [7]) was > 200 µM throughout.

As for `Brc1cccc(-c2cc(NCc3ccncc3)n3ncnc3n2)c1` [Example 55], the IC50 against PDK1 enzyme and on Chk1 was > 200 µM each time.

As to `Fc1cccc(-c2cc(Nc3ccc(Oc4ccccc4)cc3)nc3ncnn23)c1` [Example 153], the IC50 on PDK1 enzyme (setting [2]) turned out to be 12 µM; at Chk1 (setting [3]), 24.7 µM.

`Fc1cccc(-c2cc(Nc3ccc(Sc4ccccc4)cc3)nc3ncnn23)c1` [Example 155]: the IC50 amounted to 12.6 µM on PDK1 enzyme (setting [2]) and 15.1 µM at Chk1 (setting [3]).

Take `CCN(CC)c1cc(NCC2CCNCC2)n2ncnc2n1` [Example 86]: the IC50 on PDK1 enzyme (setting [4]) and at Chk1 (setting [5]) was > 200 µM in each case.

As to `O=S(=O)(Nc1nccs1)c1ccc(Nc2cc(-c3cccc(F)c3)n3ncnc3n2)cc1` [Example 156], the values for the IC50 at PDK1 enzyme (setting [2]) and at Chk1 (setting [3]) were 7.94 µM and 13 µM, respectively.

For the compound `NC(=O)Cc1ccc(Nc2cc(-c3ccc4c(c3)OCO4)n3ncnc3n2)cc1` [Example 143], the IC50 on PDK1 enzyme (setting [2]) was 11.4 µM; on Chk1 (setting [3]) it was 4.71 µM.

As for `CCOc1cccc(-c2cc(Nc3ccc(C(N)=O)cc3)nc3ncnn23)c1` [Example 144], the IC50 on PDK1 enzyme (setting [2]) came out at 12.2 µM; at Chk1 (setting [3]), 68.3 µM.

As to `CCCc1cc(OCCN)cc(-c2cc(Nc3ccc(C(N)=O)cc3)nc3ncnn23)c1` [Example 161], the 50% inhibitory concentration (IC50) on PDK1 enzyme (setting [2]) is 1.66 µM; at Chk1 (setting [3]) it was 9.04 µM.

Consider `CN(C)c1ccc(Nc2cc(-c3cccc(F)c3)n3ncnc3n2)cc1` [Example 158], for which the half-inhibitory concentration (IC50) at PDK1 enzyme (setting [2]) came out at 10.5 µM; on Chk1 (setting [3]) it was 6.75 µM.

On to `CN(C)CCOc1cccc(-c2cc(Nc3ccc(C(N)=O)cc3)nc3ncnn23)c1` [Example 163], for which the results for the IC50 at PDK1 enzyme (setting [2]) and at Chk1 (setting [3]) were 5.44 µM and 9.82 µM, respectively.

Regarding `CCc1cc(O)cc(-c2cc(Nc3ccc(C(=O)NCCN(CC)CC)cc3)nc3ncnn23)c1` [Example 164], the values for the IC50 on PDK1 enzyme (setting [2]) and at Chk1 (setting [3]) were 1.6 µM and 0.66 µM, respectively.

As to `NS(=O)(=O)c1ccc(Nc2cc(NC3CCCCC3)nc3ncnn23)cc1` [Example 37], the results for the IC50 at PDK1 enzyme (setting [6]) and on Chk1 (setting [7]) were 64 µM and > 200 µM, respectively.

With `CCCc1cc(OC)cc(-c2cc(Nc3ccc(C(N)=O)cc3)nc3ncnn23)c1` [Example 160], the concentration for half-maximal inhibition (IC50) stood at 1.32 µM at PDK1 enzyme (setting [2]) and 15.8 µM on Chk1 (setting [3]).

Regarding `CCCc1cc(OCCN(C)C)cc(-c2cc(Nc3ccc(C(N)=O)cc3)nc3ncnn23)c1` [Example 162], the IC50 on PDK1 enzyme (setting [2]) was found to be 7.34 µM; on Chk1 (setting [3]), 31.7 µM.

Turning to `Fc1cccc(-c2cc(Nc3cccc(Oc4ccccc4)c3)nc3ncnn23)c1` [Example 152], the IC50 amounted to 13.4 µM on PDK1 enzyme (setting [2]) and 32.7 µM at Chk1 (setting [3]).

With `CCc1cc(OCCN)cc(-c2cc(Nc3ccc(C(=O)NCCN(CC)CC)cc3)nc3ncnn23)c1` [Example 167], the IC50 was determined as 3.99 µM on PDK1 enzyme (setting [2]) and 3.39 µM on Chk1 (setting [3]).
